ChEMBL document CHEMBL3112501, “Design, synthesis and preliminary bioactivity studies of 1,2-dihydrobenzo[d]isothiazol-3-one-1,1-dioxide hydroxamic acid derivatives as novel histone deacetylase inhibitors” (Bioorg Med Chem, 2014)

Target: Histone deacetylase (HDAC1 and HDAC2) (Homo sapiens, UniProt Q13547+Q92769)
Test: Inhibition of HDAC1/2 in human HeLa cell extracts using acetylated histone peptide as substrate after 30 mins
Assay type: protein assay

IC50: 244 nM
Compound: O=C(CCCCCN1C(=O)c2ccc(NC(=O)Cc3ccccc3)cc2S1(=O)=O)NO
